Data: ChEMBL document CHEMBL1201862, “PubChem BioAssay data set” (2004)
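Cultured in 96-well plates, cells were exposed to test compound for 48 hours across five concentrations. GI50 is the concentration that inhibits growth by half.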 Calls of active or inactive are those of the source. Cut-off read from the data, not from the text of the source: active = GI50 up to about 1.1 µM and inactive = higher. Square brackets hold non-standard residues; d marks the D form. Peptide text beside a SMILES is read from it. * marks the point of attachment. ξ: configuration not given here. NMeY = CN[C@@H](Cc1ccc(O)cc1)C(=O)O; Cbz = O=C(OCc1ccccc1)*; ξA = CC(N)C(=O)O

Key:
Assay in all cases: inhibition of tumour cell growth, NCI panel, 48 h
EKVX = system: EKVX
LOX IMVI = system: LOX IMVI
RPMI-8226 = system: RPMI-8226
MDA-MB-231 = system: MDA-MB-231
UACC-257 = system: UACC-257
OVCAR-4 = system: OVCAR-4
SNB-75 = system: SNB-75
IGROV-1 = system: IGROV-1
NCI-H226 = system: NCI-H226
ACHN = system: ACHN
786-0 = system: 786-0
NCI-H460 = system: NCI-H460
KM-20L2 = system: KM-20L2
SK-MEL-5 = system: SK-MEL-5
M14 = system: M14
HCT-116 = system: HCT-116
COLO 205 = system: COLO 205
SR = system: SR
PC-3 = system: PC-3
UACC-62 = system: UACC-62
SK-MEL-28 = system: SK-MEL-28
SW-620 = system: SW-620
SF-268 = system: SF-268
HOP-92 = system: HOP-92
NCI/ADR-RES = system: NCI/ADR-RES
HCC 2998 = system: HCC 2998
DLD-1 = system: DLD-1
BT-549 = system: BT-549
HOP-62 = system: HOP-62
UO-31 = system: UO-31
MOLT-4 = system: MOLT-4
SK-OV-3 = system: SK-OV-3
NCI-H522 = system: NCI-H522
HT-29 = system: HT-29
SF-295 = system: SF-295
A549 = system: A549
SNB-19 = system: SNB-19
U-251 = system: U-251
Hs-578T = system: Hs-578T
HL-60 = system: HL-60
K562 = system: K562
DMS-114 = system: DMS-114
HCT-15 = system: HCT-15
NCI-H23 = system: NCI-H23
OVCAR-3 = system: OVCAR-3
MCF7 = system: MCF7
DU-145 = system: DU-145
KM12 = system: KM12
SF-539 = system: SF-539
CCRF-CEM = system: CCRF-CEM
CAKI-1 = system: CAKI-1
OVCAR-5 = system: OVCAR-5
A498 = system: A498
RXF 393 = system: RXF 393
Malme-3M = system: Malme-3M
T47D = system: T47D
MDA-MB-435 = system: MDA-MB-435
MDA-N = system: MDA-N
SN12C = system: SN12C
TK-10 = system: TK-10
SK-MEL-2 = system: SK-MEL-2
OVCAR-8 = system: OVCAR-8

Q: What does the source list for `CCOc1ccc(NCc2cc(OC)c(OC)c(OC)c2)cc1`?
A: GI50 (EKVX): 17.5 µM (inactive); GI50 (LOX IMVI): 0.918 µM (active); GI50 (RPMI-8226): 1.58 µM (inactive); GI50 (MDA-MB-231): 1.57 µM (inactive); GI50 (UACC-257): 19.7 µM (inactive); GI50 (OVCAR-4): 40.1 µM (inactive); GI50 (SNB-75): 1.96 µM (inactive); GI50 (IGROV-1): 2.4 µM (inactive); GI50 (NCI-H226): 11.3 µM (inactive); GI50 (ACHN): 6.15 µM (inactive); GI50 (786-0): 1.32 µM (inactive); GI50 (NCI-H460): 0.614 µM (active); GI50 (KM-20L2): 0.475 µM (active); GI50 (SK-MEL-5): 0.578 µM (active); GI50 (M14): 0.425 µM (active); GI50 (HCT-116): 0.533 µM (active); GI50 (COLO 205): 0.495 µM (active); GI50 (SR): 0.288 µM (active); GI50 (PC-3): 1.96 µM (inactive); GI50 (UACC-62): 0.481 µM (active); GI50 (SK-MEL-28): 2.99 µM (inactive); GI50 (SW-620): 0.334 µM (active); GI50 (SF-268): 3.4 µM (inactive); GI50 (HOP-92): 6.04 µM (inactive); GI50 (NCI/ADR-RES): 0.359 µM (active); GI50 (HCC 2998): 0.9 µM (active); GI50 (DLD-1): 1.11 µM (active); GI50 (BT-549): 0.125 µM (active); GI50 (HOP-62): 0.675 µM (active); GI50 (UO-31): 9.02 µM (inactive); GI50 (MOLT-4): 0.822 µM (active); GI50 (SK-OV-3): 1.17 µM (inactive); GI50 (NCI-H522): 0.452 µM (active); GI50 (HT-29): 0.407 µM (active); GI50 (SF-295): 0.417 µM (active); GI50 (A549): 1.68 µM (inactive); GI50 (SNB-19): 2.88 µM (inactive); GI50 (U-251): 0.536 µM (active); GI50 (Hs-578T): 1.11 µM (active); GI50 (HL-60): 0.463 µM (active); GI50 (K562): 0.269 µM (active); GI50 (DMS-114): 0.287 µM (active); GI50 (HCT-15): 0.303 µM; GI50 (NCI-H23): 1.96 µM (inactive); GI50 (OVCAR-3): 0.388 µM (active); GI50 (MCF7): 0.455 µM (active); GI50 (DU-145): 3.15 µM (inactive); GI50 (KM12): 0.319 µM (active); GI50 (SF-539): 0.562 µM (active)

Q: Which GI50 (EKVX) does the source give for `COc1ccc(C[C@@H](C(=O)N[C@@H](C)C(N)=O)N(C)C(=O)[C@@H]2CCCN2C(=O)[C@H](CC(C)C)NC(=O)C(C)NC(=O)OCc2ccccc2)cc1` (stereo partly drawn) (Cbz-[ξA]LP[NMeY](Me)A-NH2) here?
A: > 100 µM (inactive)

Q: And the GI50 (LOX IMVI)?
A: > 100 µM (inactive)

Q: What about the GI50 (CCRF-CEM) of the same compound?
A: > 100 µM (inactive)

Q: What about the GI50 (RPMI-8226) of the same compound?
A: > 100 µM (inactive)

Q: And the GI50 (MDA-MB-231)?
A: > 100 µM (inactive)

Q: And the GI50 (UACC-257)?
A: > 10 µM (inactive)

Q: And the GI50 (OVCAR-4)?
A: > 100 µM (inactive)

Q: What about the GI50 (CAKI-1) of the same compound?
A: > 100 µM (inactive)

Q: What about the GI50 (SNB-75) of the same compound?
A: 66.1 µM (inactive)

Q: What about the GI50 (OVCAR-5) of the same compound?
A: > 100 µM (inactive)

Q: What about the GI50 (A498) of the same compound?
A: > 100 µM (inactive)

Q: And the GI50 (IGROV-1)?
A: 51.8 µM (inactive)

Q: What about the GI50 (NCI-H226) of the same compound?
A: > 100 µM (inactive)

Q: And the GI50 (ACHN)?
A: > 100 µM (inactive)

Q: What about the GI50 (786-0) of the same compound?
A: > 100 µM (inactive)

Q: What about the GI50 (NCI-H460) of the same compound?
A: > 100 µM (inactive)

Q: What about the GI50 (RXF 393) of the same compound?
A: > 100 µM (inactive)

Q: What about the GI50 (SK-MEL-5) of the same compound?
A: 76.2 µM (inactive)

Q: And the GI50 (M14)?
A: > 100 µM (inactive)

Q: And the GI50 (Malme-3M)?
A: > 100 µM (inactive)

Q: What about the GI50 (HCT-116) of the same compound?
A: > 100 µM (inactive)

Q: And the GI50 (COLO 205)?
A: > 100 µM (inactive)

Q: What about the GI50 (SR) of the same compound?
A: > 100 µM (inactive)

Q: What about the GI50 (PC-3) of the same compound?
A: 61.7 µM (inactive)

Q: What about the GI50 (UACC-62) of the same compound?
A: 73.1 µM (inactive)

Q: And the GI50 (T47D)?
A: > 100 µM (inactive)

Q: What about the GI50 (SK-MEL-28) of the same compound?
A: > 100 µM (inactive)

Q: What about the GI50 (SW-620) of the same compound?
A: > 100 µM (inactive)

Q: What about the GI50 (SF-268) of the same compound?
A: > 100 µM (inactive)

Q: And the GI50 (HOP-92)?
A: > 100 µM (inactive)

Q: And the GI50 (MDA-MB-435)?
A: > 100 µM (inactive)

Q: What about the GI50 (MDA-N) of the same compound?
A: > 100 µM (inactive)

Q: What about the GI50 (NCI/ADR-RES) of the same compound?
A: > 100 µM (inactive)

Q: And the GI50 (SN12C)?
A: > 100 µM (inactive)

Q: And the GI50 (HCC 2998)?
A: > 100 µM (inactive)

Q: And the GI50 (BT-549)?
A: > 100 µM (inactive)

Q: And the GI50 (TK-10)?
A: > 100 µM (inactive)

Q: What about the GI50 (HOP-62) of the same compound?
A: > 100 µM (inactive)

Q: And the GI50 (UO-31)?
A: > 100 µM (inactive)

Q: What about the GI50 (MOLT-4) of the same compound?
A: 35.5 µM (inactive)

Q: What about the GI50 (SK-MEL-2) of the same compound?
A: > 100 µM (inactive)

Q: And the GI50 (SK-OV-3)?
A: > 100 µM (inactive)

Q: And the GI50 (NCI-H522)?
A: > 100 µM (inactive)

Q: And the GI50 (HT-29)?
A: > 100 µM (inactive)

Q: And the GI50 (SF-295)?
A: > 100 µM (inactive)

Q: And the GI50 (A549)?
A: > 100 µM (inactive)

Q: And the GI50 (SNB-19)?
A: > 100 µM (inactive)

Q: What about the GI50 (U-251) of the same compound?
A: > 100 µM (inactive)

Q: And the GI50 (OVCAR-8)?
A: > 100 µM (inactive)

Q: And the GI50 (Hs-578T)?
A: 4.94 µM (inactive)

Q: What about the GI50 (HL-60) of the same compound?
A: > 100 µM (inactive)

Q: What about the GI50 (K562) of the same compound?
A: 84.3 µM (inactive)

Q: What about the GI50 (HCT-15) of the same compound?
A: > 100 µM

Q: And the GI50 (NCI-H23)?
A: > 100 µM (inactive)

Q: And the GI50 (OVCAR-3)?
A: > 100 µM (inactive)

Q: What about the GI50 (MCF7) of the same compound?
A: > 100 µM (inactive)

Q: What about the GI50 (DU-145) of the same compound?
A: > 100 µM (inactive)

Q: And the GI50 (KM12)?
A: > 100 µM (inactive)

Q: What about the GI50 (SF-539) of the same compound?
A: > 100 µM (inactive)
